Results taken from PMC5458078, “Global mapping of CARM1 substrates defines enzyme specificity and substrate recognition” (Nature Communications, 2017).

Tested on: CARM1
Assay: 96-spot peptide array in vitro methylation, autoradiography
Type: biochemical, human
Conditions: 96-spot array, 3H-SAM, 30 °C
From the text: Having corroborated the ability of CARM1 to methylate most of the detected substrates, we designed an additional 96-spot peptide array (Fig. 2e and Supplementary Data 3) with two purposes in mind: (1) to examine the significance of surrounding amino acids on CARM1-directed arginine dimethylation, particularly those mutated in human cancers; and (2) to measure PRMT specificity towards respective substrates. The selected sequences encompassed a mixture herein identified and predicted CARM1 substrates (in light blue) and representative cancer-relevant substrates, accompanied by the sequences harbouring mutations detected in human patients[38] (in blue). We also arbitrarily mutated the recognition sequence surrounding R1064 on BAF155 (ref. [20])—the known CARM1 methylation site—to assess the significance of surrounding amino-acid residues to CARM1 activity (four sequence in dark blue). The array also featured 17 known substrates of PRMT1 (in grey), 10 substrates of PRMT5 (in purple) and 4 substrates of PRMT6 (in pink) as positive controls for these enzymes.
The FL and N-terminal domain-deleted version of human CARM1 cDNAs, and other PRMT FL cDNAs were cloned into pFN21K Halo Tag CMV Flexi mammalian expression vector (Promega, Madison, WI) using the unique Sgfl and Pmel site[55]. To express the protein, DNA constructs were transiently transfected into HEK293T CARM1 KO cells in 15 cm dishes using transIT-LT1 reagent (Mirus Bio, Madison, WI) according to the manufacturer's protocol. Proteins were allowed to express for 48 h. Cell pellets were then collected and lysed in lysis buffer (50 mM HEPES, pH 7.5, 150 mM NaCl, 0.005% NP-40, 0.5 mM EDTA, supplemented with 1 × protease inhibitor cocktail before use). The cells were sonicated on ice using a Branson Sonifier 450 with a microtip at 35% amplitude (10 s on, 30 s off, 6 cycles). The crude lysate was cleared by centrifugation (15,000 r.p.m., 4 °C, 20 min). The cleared lysate was then mixed with pre-washed Halo Link resin (60 μl resin for a 15 cm dish) and incubated with rotation at room temperature for 2 h. The resin was then washed twice with lysis buffer, once with lysis buffer supplemented with 1 M urea and twice with lysis buffer. The recombinant proteins were then eluted with cleavage buffer (lysis buffer supplemented with 1 mM DTT and 20 μg ml^−1 TEV protease) with rotation at room temperature for 2 h. The resin was centrifuged at 3,000 r.p.m. for 5 min, and the supernatant containing the cleaved protein was collected and protein concentration was determined using the Bradford assay (Thermo Scientific, Rockford, IL). Protein purity was assessed by running SDS–PAGE and Coomassie Blue staining.
Purified recombinant enzyme and substrates were incubated in methylation buffer (50 mM Tris-HCl, pH 8.0, 100 mM NaCl and 0.5 mM EDTA) for 1–4 h at 30 °C in the presence of 1 μl radioactive S-adenosyl-L-[methyl-^3H] methionine. The reaction was stopped by adding 5 × SDS sample buffer and boiling at 99 °C for 5 min. Proteins were resolved by SDS–PAGE. The gel was stained with Coomassie Brilliant Blue (Coomassie Brilliant Blue R-250 0.05% w/v: methanol 50%: acetic acid 10%: H2O 40%) followed by de-staining with dye-free buffer. Fixed gel was then soaked with amplify (GE Healthcare, Waukesha, WI) with gentle shaking at room temperature for 30 min before drying on a Whatman paper at 80 °C and exposing to an X-ray film in dark at −80 °C. Protein methylation was detected by autoradiography.
For methylation assays using the peptide array, 16 or 20 μg purified recombinant CARM1 or same molar concentration of the other PRMTs (for 96-spot and 192-spot arrays, respectively) was mixed well with 40 μl radioactive S-adenosyl-L-[methyl-^3H] methionine, 80 μl 5 × methylation buffer and ddH2O to achieve a final volume of 200 or 400 μl reaction (for 96-spot and 192-spot arrays, respectively). The Celluspot peptide arrays were customized and produced by Intavis Bioanalytical Instruments, Germany. […]

Sequence | Methylation by CARM1 of mutated peptide vs wild-type sequence
DPYRPVRLQMQKLPT [MED12 (R1862) P1864Q] | significantly reduced methylation by CARM1
PGNILAPRVPLTAPN [BAF155 (R1064) G1062A] | nearly abolished methylation by CARM1
VQSLCDTRFHFQQRA [TET2 (R680) G678D] | significantly reduced methylation by CARM1
YGSQTPQRCPMTMQG [ARID1A (R429) Y430C] | significantly reduced methylation by CARM1
YGSQTPQRYQMTMQG [ARID1A (R429) P431Q] | significantly reduced methylation by CARM1
PGNILGARVPLTAPN [BAF155 (R1064) P1063A] | nearly abolished methylation by CARM1
PGNILGPRVALTAPN [BAF155 (R1064) P1066A] | nearly abolished methylation by CARM1
